From ChEMBL document CHEMBL5335832, “Cavomycins A-C, Linear Oligomer Depsipeptides from an Annelid-Associated Streptomyces cavourensis” (J Nat Prod, 2024)
Activity calls are given as the source filed them. No cut-off for these calls is given here.

How the values were obtained:
[1] = tested on: PANC-1; experiment: Antiproliferative activity against human PANC-1 cells assessed as inhibition of cell growth at 20 to 100 uM incubated for 72 hrs by MTT assay; assay type: functional, cell-based; conditions: dose 20-100 µM
[2] = tested on: PANC-1; experiment: Antiproliferative activity against human PANC-1 cells assessed as inhibition of cell growth incubated for 72 hrs by MTT assay; assay type: functional, cell-based; conditions: PANC-1, 72 h

IC50 [2] [µM]	Structure (SMILES)	Activity [1]
	CC(C)[C@H](NC(=O)[C@H](C)OC(=O)[C@H](NC(=O)[C@H](OC(=O)[C@@H](NC(=O)[C@H](C)OC(=O)[C@H](NC(=O)[C@H](OC(=O)[C@@H](NC(=O)[C@H](C)OC(=O)[C@@H](NC(=O)[C@H](C)O)C(C)C)C(C)C)C(C)C)C(C)C)C(C)C)C(C)C)C(C)C)C(=O)O	inactive
1.2	CC(C)[C@H](NC(=O)[C@H](C)O)C(=O)O[C@@H](C(=O)N[C@@H](C(=O)O[C@@H](C)C(=O)N[C@H](C(=O)O[C@@H](C(=O)N[C@@H](C(=O)O[C@@H](C)C(=O)N[C@H](C(=O)O[C@@H](C(=O)N[C@@H](C(=O)O)C(C)C)C(C)C)C(C)C)C(C)C)C(C)C)C(C)C)C(C)C)C(C)C	
	CC(C)[C@H](NC(=O)[C@H](C)OC(=O)[C@H](NC(=O)[C@H](OC(=O)[C@@H](NC(=O)[C@H](C)OC(=O)[C@H](NC(=O)[C@H](OC(=O)[C@@H](NC(=O)[C@H](C)O)C(C)C)C(C)C)C(C)C)C(C)C)C(C)C)C(C)C)C(=O)O	inactive
1.7	COC(=O)[C@H](NC(=O)[C@H](OC(=O)[C@@H](NC(=O)[C@H](C)OC(=O)[C@H](NC(=O)[C@H](OC(=O)[C@@H](NC(=O)[C@H](C)OC(=O)[C@H](NC(=O)[C@H](OC(=O)[C@@H](NC(=O)[C@H](C)O)C(C)C)C(C)C)C(C)C)C(C)C)C(C)C)C(C)C)C(C)C)C(C)C)C(C)C	
